Patent US10532066B2, “Surfactant lipids, compositions thereof, and uses thereof” (National Jewish Health, priority 2007, dated 2020)

Key:
[1] = tested on: primary rat alveolar macrophages; assay: LPS-induced NO production by rat alveolar macrophages; type: cell-based; settings: LPS 10 ng/ml, 24 h, liposomes; LPS without phospholipid = 100%
Protocol: FIG. 1. Anionic phospholipids inhibit inflammatory mediator production induced by LPS. Liposomes composed of sphingomyelin (SM), phosphatidylethanolamine (PE) dipalmitoyl-phosphatidylcholine ((DPPC), phosphatidylserine (PS), palmitoyl-oleoyl-phosphatidylglycerol (POPG) and phosphatidylinositol (PI) were formed by bath-sonication for 30 min at room temperature. LPS (10 ng/ml) and different concentrations of phospholipids were added to monolayer cultures of differentiated U937 cells (A), or primary rat alveolar macrophages (B). At 6 h after stimulation, media were collected and secreted TNF-α levels were determined in U937 cultures. NO production was determined 24 h after stimulating rat alveolar macrophages. LPS stimulation in the absence of phospholipid was set as 100%. […] The average TNF-α production upon LPS stimulation was (8.0±0.54 ng/ml). The average NO production upon LPS stimulation was 12.17±0.27 μM.
FIG. 2. The inhibitory effect of phosphatidylglycerols on LPS-induced inflammatory mediator production is molecular species specific. PG liposomes were formed by bath-sonication for 30 min at room temperature. LPS (10 ng/ml) and different concentrations of PG were added to monolayer cultures of differentiated U937 cells (A) or rat alveolar macrophages (B). Media TNF-α measurements were performed 6 h after stimulation. Media NO measurements were performed 24 h after stimulation. LPS stimulation without PG was set at 100%. The molecular species of PG shown on the graph are 8:0; dioctanoyl-phosphatidylglycerol, 12:0; dilauroyl-phosphatidylglycerol (DLPG), 14:0; dimyristoyl-phosphatidylglycerol (DMPG), 16:0; dipalmitoyl-phosphatidylglycerol (DPPG), 18:0; distearoyl-phosphatidylglycerol, 16:0/18:1; palmitoyl-oleoyl-phosphatidylglycerol (POPG). […] The average TNF-α production upon LPS stimulation was 11.3±0.7 ng/ml. The average NO production upon LPS stimulation was 10.1±0.6 μM.
Rat alveolar macrophages were isolated from bronchoalveolar lavage fluid (BALF) of Sprague-Dawley rats. The lungs were lavaged with pyrogen-free saline, and alveolar macrophages were sedimented by centrifugation at 150×g×5 min. Isolated macrophages were plated at 5×10^5 cells/well in 24-well plates (Falcon) in RPMI 1640 medium containing 10% BGS. The cells were allowed to adhere for 2 h and then used for the experiments after washing with phosphate-buffered-saline (PBS) to remove the unattached cells.
Nitric oxide (NO) accumulation in the supernatant was determined as previously reported (28). Briefly, rat alveolar macrophages were stimulated with LPS (10 ng/ml) or LPS plus phospholipids for 24 h. Culture supernatants (usually […]) were combined with an equal volume of Greiss reagent, and the samples were incubated at room temperature for 10 min before the absorbance was quantified at 550 nm. With the use of a standard curve, the nmol of NO produced were determined and normalized to total cell number in each sample.

human CD14 = target: T1, human CD14 (Homo sapiens, UniProt P08571); assay: CD14 binding to solid phase phospholipids (ELISA); settings: for direct binding of CD14 to molecular species of PG: CD14 1 μg/ml, POPG = 100%; for binding of CD14 to solid phase lipid: varying CD14, 37° C. 1 h
T1 construct: purchased Cell Sciences Inc. (Canton, Mass.)
T1 sequence (P08571 20-345): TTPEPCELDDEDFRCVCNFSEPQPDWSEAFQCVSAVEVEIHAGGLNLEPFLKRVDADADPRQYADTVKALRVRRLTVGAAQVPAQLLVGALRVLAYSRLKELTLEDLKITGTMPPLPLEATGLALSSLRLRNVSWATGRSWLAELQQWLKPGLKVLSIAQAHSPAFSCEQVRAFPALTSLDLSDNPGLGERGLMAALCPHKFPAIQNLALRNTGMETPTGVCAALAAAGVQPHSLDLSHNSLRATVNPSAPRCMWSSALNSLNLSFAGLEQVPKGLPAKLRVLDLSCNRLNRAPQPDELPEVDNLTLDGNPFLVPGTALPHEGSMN
Protocol: FIG. 12. CD14 binds to solid phase lipids. […] Nonspecific binding was blocked with 20 mM Tris buffer (pH 7.4) containing 0.15 M NaCl, 5 mM CaCl2 (in the upper panel) or 2 mM EGTA (in the lower panel), and 5% (wt/vol) BSA (buffer A).
FIG. 13. PG Inhibits CD14 binding to solid phase LPS. (A) Various types of PG were coated onto microtiter plates, and incubated with CD14 (1 μg/ml) at 37° C. for 1 h. […] Types of PG shown on the graph are: dilauroylphosphatidylglycerol (DLPG), dimyristoyl-phosphatidylglycerol (DMPG), dipalmitoylphosphatidylglycerol (DPPG), and 16:0/18:1; palmitoyl-oleoyl-phosphatidylglycerol (POPG). […] The binding of CD14 to LPS was detected using anti-CD14 monoclonal antibody. The ELISA based absorbance of CD14 bound to LPS was defined as 100%.
The wells were then washed with 20 mM Tris buffer (pH 7.4) containing 0.15 M NaCl and 5 mM CaCl2 or 2 mM EGTA (buffer B), and 1 μg/ml anti-human CD14 IgG or anti-His antibody (50 μl/well) in buffer A was added and incubated overnight at 4° C., followed by the incubation with horseradish peroxidase (HRP)-labeled anti-mouse IgG (1:5000) for 1 h. After washing the wells with buffer B, the peroxidase reaction was finally performed using o-phenylenediamine as a substrate. The binding of CD14 or MD-2 to phospholipids was detected by measuring absorbance at 490 nm.

BALB/c mice = assay: Lung inflammation induced by intratracheally administered LPS; settings: LPS 1 μg + phospholipids 30 μg sprayed into trachea, 18 h
Protocol: A mixture of LPS (1 μg) and phospholipids (30 μg) in 20 μl of PBS was sprayed into murine trachea using a MicroSprayer™ aerosolizer. At 18 h after stimulation, lungs were lavaged via the trachea. TNF-α production (A) was determined by ELISA. The number of leukocytes was counted and differential cell counts (B) were determined from at least 300 cells on cytocentrifuged preparations. Mouse KC (C) and MIP-2 (D) secretion were determined using Quantikine kits (R&D System). The data shown are the means±S.E. from six to eight mice.
Human and mouse TNF-α ELISA kits were purchased from BioSource (Camarillo, Calif.). Mouse KC and MIP-2 Quantikine kits were purchased from R&D System. Measurements of these cytokines were according to the manufacturers' protocols.
Female BALB/c mice from 6 to 8 weeks of age were obtained from Jackson Laboratories (Bar Harbor, Me.). Experiments were conducted under a protocol approved by the Institutional Animal Care and Use Committee of the National Jewish Medical and Research Center. Liposomes were formed using a Liposofast™ (Avestin; Ottawa, Canada), which makes unilamellar liposomes of 100 nm of diameter, and then mixed with an aqueous solution containing LPS. The mixture of LPS and phospholipids was sprayed into murine trachea using a MicroSprayer™ aerosolizer (PennCentury, Philadelphia, Pa.) under isoflurene anesthesia. […] After stimulation, lungs were lavaged via the trachea with 1 ml of Hank's balanced salt solution (Invitrogen Corporation, Carlsbad, Calif.). The volume of collected BALF was measured in each sample and the number of leukocytes was counted (Coulter Counter; Coulter Corporation, Hialeah, Fla.). Differential cell counts were determined from at least 300 cells on cytocentrifuged preparations (Cytospin; Shandon Ltd., Runcorn, Cheshire, UK). Slides were stained with modified Wright-Giemsa (Hema; Protocol, Swedesboro, N.J.) and the cell populations differentiated by standard hematologic procedures. Cytokine levels in the BALF or in the supernatants of cultured airway macrophages were measured using ELISA kits.

TLR2 = TLR2 (Homo sapiens, UniProt O60603); assay: TLR agonist IL-8 production in BEAS2B epithelial cells, TLR2; type: cell-based; parameters: endogenous in cells; host or cells: BEAS2B; settings: Mycoplasma pneumoniae membranes, 48 h
Protocol: In this experiment, multiple TLRs were stimulated with defined TLR agonists for 48 h, and the IL-8 production was measured. In each case, the maximal stimulation by agonist is set at 100% and the antagonism by POPG or PI is expressed as the relative % response. The Controls consist of no treatment, or treatment with POPG, or phosphatidylcholine (POPC), or phosphatidylinositol (PI), in the absence of agonist as indicated. The agonists for the TLRs consist of Pam3Cys for TLR1/2, Mycoplasma pneumoniae membranes as an agonist for TLR2, Mycoplasma fermentans derived MALP2 as an agonist for TLR 2/6, double stranded RNA (poly IC) for TLR3, and bacterial flagellin (Fla) as an agonist for TLR5.
Monolayers of BEAS2B cells were challenged with the TLR1/2 agonist, Pam3Cys (25 ug/ml); the TLR 2/6 agonist MALP2 (10 ng/ml); the TLR2 agonist mycoplasma membrane (Mem) (1 ug/ml); the TLR3 agonist, poly I:C (0.1 ug/ml); and the TLR5 agonist, flagellin (100 ng/ml). For each agonist parallel incubations were performed containing 200 ug/ml POPG as liposomes, or 200 ug/ml POPG as nanodises as indicated.

TLR2, sequence (O60603 21-784): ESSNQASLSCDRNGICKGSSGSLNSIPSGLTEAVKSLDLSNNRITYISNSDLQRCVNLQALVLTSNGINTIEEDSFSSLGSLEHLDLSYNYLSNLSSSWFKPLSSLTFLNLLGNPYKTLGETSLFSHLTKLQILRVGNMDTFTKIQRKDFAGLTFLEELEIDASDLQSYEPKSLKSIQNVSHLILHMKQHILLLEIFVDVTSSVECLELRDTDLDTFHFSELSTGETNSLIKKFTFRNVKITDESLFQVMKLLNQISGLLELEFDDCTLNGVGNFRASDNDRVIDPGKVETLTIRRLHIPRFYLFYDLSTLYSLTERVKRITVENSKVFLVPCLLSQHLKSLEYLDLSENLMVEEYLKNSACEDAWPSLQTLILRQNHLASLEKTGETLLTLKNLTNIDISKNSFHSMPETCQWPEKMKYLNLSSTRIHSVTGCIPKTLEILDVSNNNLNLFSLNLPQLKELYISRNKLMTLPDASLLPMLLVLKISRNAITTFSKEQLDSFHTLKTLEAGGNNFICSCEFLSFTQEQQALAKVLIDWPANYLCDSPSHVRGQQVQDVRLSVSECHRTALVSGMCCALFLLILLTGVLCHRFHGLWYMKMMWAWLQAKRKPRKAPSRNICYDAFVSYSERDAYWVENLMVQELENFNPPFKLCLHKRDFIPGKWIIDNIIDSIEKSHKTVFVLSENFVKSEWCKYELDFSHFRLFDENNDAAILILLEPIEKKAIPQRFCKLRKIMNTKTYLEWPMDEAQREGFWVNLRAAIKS

Molecule | LPS-induced NO production [1] | direct binding of CD14 to molecular species of PG (human CD14) | KC secretion in BALF (BALB/c mice) | LPS-induced neutrophil infiltration (BALB/c mice) | MIP-2 secretion in BALF (BALB/c mice) | TNF-α secretion in the lung (BALF) (BALB/c mice) | binding of CD14 relative to the levels of POPG binding (human CD14; 1.25 nmole lipid per well) | binding of CD14 to solid phase lipid (human CD14; 1.25 nmole lipid per well) | activity of TLR2 (IL-8 production) (TLR2)
CCCCCCCCCCCCCC(=O)OCC(COP(=O)(O)OCC(O)CO)OC(=O)CCCCCCCCCCCCC (stereo not drawn) [DMPG, dimyristoyl-phosphatidylglycerol] | as potent as POPG | strongest direct binding interactions | attenuated | modestly attenuated | attenuated | significantly attenuated |  |  | 
CCCCCCCCCCCCCCCC(=O)OC[C@H](COP(=O)([O-])OCC[N+](C)(C)C)OC(=O)CCCCCCCCCCCCCCC [DPPC, dipalmitoyl-phosphatidylcholine, reference compound] | no significant effect |  |  | not |  | unaffected | approximately 30% |  | 
CCCCCCCCCCCCCCCC(=O)OCC(COP(=O)(O)OCC(O)CO)OC(=O)CCCCCCCCCCCCCCC (stereo not drawn) [DPPG, dipalmitoyl-phosphatidylglycerol, reference compound] | failed to antagonize | nearly the same extent as POPG and DMPG |  |  |  |  |  |  | 
CCCCCCCC/C=C\CCCCCCCC(=O)O[C@H](COC(=O)CCCCCCCCCCCCCCC)COP(=O)(O)OCC(O)CO (stereo partly drawn) [POPG, palmitoyl-oleoyl-phosphatidylglycerol] | significantly attenuated | strongest direct binding interactions | especially POPG attenuated | modestly attenuated | especially POPG attenuated | significantly attenuated |  | strongly bound | inhibit
phosphatidylinositol [PI] | significantly attenuated |  | attenuated | modestly attenuated | attenuated | significantly attenuated |  | strongly bound | inhibit
